Experiment: xn = mol fraction of the nth substance listed
Conditions: 101 kPa

CCn1cc[n+](C)c1.COCCOCCOS(=O)(=O)[O-] + O
electrical conductivity [S/m]
Conditions | x2 = 0.2 | x2 = 0.4 | x2 = 0.6 | x2 = 0.8
293.2 K | 0.19 | 0.24 | 0.42 | 0.82
298.2 K | 0.23 | – | – | 0.99
303.2 K | 0.3 | 0.38 | 0.63 | 1.18
308.2 K | 0.38 | 0.47 | 0.76 | 1.4
313.2 K | – | 0.57 | 0.9 | –
318.2 K | 0.56 | 0.68 | 1.06 | 1.87
323.2 K | 0.67 | 0.79 | 1.22 | 2.12
328.2 K | 0.79 | – | 1.4 | 2.39
333.2 K | 0.92 | 1.06 | 1.58 | 2.68
338.2 K | – | 1.2 | – | –
343.2 K | 1.2 | 1.35 | 1.96 | –
348.2 K | – | – | 2.17 | 3.59
353.2 K | 1.51 | 1.68 | – | –

CC[n+]1ccn(C)c1.N#C[N-]C#N + O
electrical conductivity [S/m]
Conditions | x2 = 0.2 | x2 = 0.4 | x2 = 0.6 | x2 = 0.8
293.2 K | 2.72 | 3.47 | – | –
298.2 K | 3.09 | 3.91 | 5.06 | 6.41
303.2 K | 3.48 | 4.4 | 5.7 | 7.2
308.2 K | – | 4.91 | – | 8
313.2 K | – | 5.43 | 7.03 | –
318.2 K | – | 5.97 | 7.73 | 9.63
323.2 K | 5.25 | 6.52 | 8.42 | 10.5
328.2 K | – | 7.08 | 9.14 | 11.4
333.2 K | 6.22 | 7.65 | 9.85 | 12.2
338.2 K | 6.71 | – | – | 13.1
343.2 K | 7.26 | 8.81 | 11.3 | 13.9
348.2 K | 7.79 | 9.42 | 12 | 14.8
353.2 K | 8.36 | 10 | 12.7 | 15.6
